This is an account of results in PubChem BioAssay AID1996.

Converted amounts (≈) assume the structure as drawn.

The conditions of the data set: buffer; pH 7.4; 200.0 µM.
A word on the kinetic solubility: it is the concentration staying in solution when a stock, usually in DMSO, is diluted into the medium. For `CC(CNC(=O)c1ccc2c(c1)OCO2)c1ccc([N+](=O)[O-])cc1` (configuration not stated), the solubility (kinetic) is 2 µg/mL (≈ 6.09 µM).

`O=C(COC(=O)Cc1cccc(F)c1)NC(=O)NC1CCCCC1` yielded a solubility (kinetic) of more than 50.5 µg/mL.

`Cc1ccc(N=C2NC(=O)/C(=C/c3cccn3C)S2)c(C)c1` came in with a solubility (kinetic) of 1.2 µg/mL (≈ 3.85 µM).

`Cc1noc(C)c1S(=O)(=O)N1CCC(C(=O)O)CC1` returned a solubility (kinetic) of more than 43.2 µg/mL.

Compound `Cc1ccc(NC(=O)C2CCCC2)cc1Cl` yielded a kinetic solubility of 3.7 µg/mL (≈ 15.6 µM).

Regarding `O=C(COC(=O)CNC(=O)C1CCCCC1)Nc1ccc(F)c([N+](=O)[O-])c1`, the kinetic solubility was more than 57.2 µg/mL.

Compound `CNc1snc(C)c1C(=O)OCC(=O)NCc1ccccc1OC` returned a kinetic solubility of 3.8 µg/mL (≈ 10.9 µM).

For the compound `COc1ccc(S(=O)(=O)N2CCc3ccccc3C2)cc1`, the solubility (kinetic) came to 0.7 µg/mL (≈ 2.31 µM).

Turning to `c1cncc(-c2nc(N3CCOCC3)c3c4c(sc3n2)CCC4)c1`, the solubility (kinetic) came out at 1.1 µg/mL (≈ 3.25 µM).

`C[C@H](N)c1nnc(SCC(N)=O)o1.Cl` showed a kinetic solubility of more than 35.8 µg/mL.

Consider `O=C(O)c1cc(S(=O)(=O)NCCN2CCNC2=O)ccc1O`, for which the solubility (kinetic) was more than 49.4 µg/mL.

`CCOC(=O)c1cc(C)nc(S(C)(=O)=O)c1C#N`: the kinetic solubility was determined as 28.3 µg/mL (≈ 105 µM).

`CCCOc1ccccc1/C=C1/C(=O)ON=C1C` displayed a solubility (kinetic) of 23.3 µg/mL (≈ 95 µM).

With `Cc1cc(C(=O)NC(=S)Nc2cccc(C(=O)O)c2C)ccc1[N+](=O)[O-]`, the solubility (kinetic) was more than 56 µg/mL.

`CCN(CC)S(=O)(=O)c1ccc(NC(=S)Nc2ccccc2)cc1` registered a kinetic solubility of 13 µg/mL (≈ 35.8 µM).

Compound `COc1ccc(C=O)c2[nH]c3c(Cl)ncnc3c12` registered a solubility (kinetic) of 3.4 µg/mL (≈ 13 µM).

With `CC(=O)N(Cc1ccccc1)c1ccccc1C(=O)O`, the solubility (kinetic) was more than 40.4 µg/mL.

For the compound `COc1ccc(C)cc1NC(=O)COC(=O)C1COc2ccccc2O1` (configuration not stated), the solubility (kinetic) is more than 53.6 µg/mL.

Regarding `O=C(Nc1ccccc1C(F)(F)F)c1ccc2nccnc2c1`, the kinetic solubility is more than 47.6 µg/mL.

For the compound `CSc1cccc(NC(N)=S)c1`, the solubility (kinetic) turned out to be 29.2 µg/mL (≈ 147 µM).

Regarding `CC(NC(=O)COC(=O)c1ccc(N2CCCC2=O)cc1)c1ccc(F)cc1` (configuration not stated), the solubility (kinetic) stood at 8.2 µg/mL (≈ 21.3 µM).

For the compound `CC(OC(=O)C1=COCCO1)C(=O)Nc1ccc(Cl)cn1` (configuration not stated), the solubility (kinetic) is more than 46.9 µg/mL.

Turning to `O=C(Nc1nccs1)c1ccc2ccccc2n1`, the kinetic solubility came out at 5.6 µg/mL (≈ 21.9 µM).

On to `O=C(NC(=S)Nc1ccccc1Cl)C1CC1`, for which the solubility (kinetic) is more than 38.2 µg/mL.

The compound `COc1ccccc1OCCn1ccnc1` returned a solubility (kinetic) of more than 32.7 µg/mL.

Turning to `CCNC(=O)COC(=O)CCNC(=O)c1cccc(C)c1`, the kinetic solubility came out at 35.1 µg/mL (≈ 120 µM).

For the compound `Cc1ccccc1OCCC(=O)Nc1ccc2c(C)cc(=O)oc2c1`, the solubility (kinetic) amounted to 4.2 µg/mL (≈ 12.4 µM).

Turning to `CC1(C)CC(=O)C=C(NCCc2c[nH]c3ccccc23)C1`, the solubility (kinetic) is more than 42.4 µg/mL.

In the case of `NC(=S)c1cc2cc(Br)ccc2oc1=O`, the kinetic solubility was less than 0.6 µg/mL.

As for `O=C(CSc1ccccn1)N1CCNC1=O`, the solubility (kinetic) was more than 35.6 µg/mL.

The compound `CC(Sc1ncnc2sc(-c3ccccc3)cc12)C(N)=O` (configuration not stated) yielded a kinetic solubility of 0.8 µg/mL (≈ 2.54 µM).

As to `COc1ccc(-c2cc(-c3ccccc3)c(C#N)c(SCC(=O)O)n2)cc1`, the kinetic solubility was more than 56.5 µg/mL.

With `CC1CCc2[nH]c3ccc(C(=O)O)cc3c2C1` (configuration not stated), the solubility (kinetic) is more than 34.4 µg/mL.

Take `COc1ccccc1NC(=O)Cn1c([N+](=O)[O-])cnc1C`: the solubility (kinetic) is more than 43.5 µg/mL.

`Cc1ccc(CNC(=O)c2ccc(C)s2)cc1` registered a solubility (kinetic) of 19.2 µg/mL (≈ 78.3 µM).

`O=C(Cc1ccc(Cl)cc1Cl)Nc1ccncc1Cl` gave a solubility (kinetic) of 12.4 µg/mL (≈ 39.3 µM).

For the compound `COC(=O)c1sc(NC(=O)c2c(F)cccc2F)c(C#N)c1C`, the solubility (kinetic) was determined as 7.2 µg/mL (≈ 21.4 µM).

Turning to `Cc1ccc(N2C(=O)[C@@H]3C(c4cccnc4)=NO[C@@H]3C2=O)cc1`, the solubility (kinetic) was more than 46.1 µg/mL.

`CN(C)C(C)(C)C#CC(O)(c1ccccc1)c1ccccc1`: the solubility (kinetic) is more than 44 µg/mL.

In the case of `CC1=Nc2cccc([N+](=O)[O-])c2NC(=O)C1`, the kinetic solubility was more than 32.9 µg/mL.

`C/C(=N/NC(=O)c1ccncc1)c1ccccc1` returned a kinetic solubility of more than 35.9 µg/mL.

Regarding `O=C1C2CCN(CC2)C12CC2c1ccc(C(F)(F)F)cc1` (configuration not stated), the kinetic solubility is 23.9 µg/mL (≈ 80.9 µM).

As to `O=C(NC1CCN(S(=O)(=O)c2ccccc2)CC1)c1ccccc1`, the solubility (kinetic) was less than 0.4 µg/mL.

As for `CCOc1ccc(N2C(=O)S/C(=C\c3ccc(O)c(OCC)c3)C2=O)cc1`, the solubility (kinetic) is less than 0.8 µg/mL.

In turn, `COc1ccc(CSc2nc(O)cc(=O)n2CC(C)C)cc1F` gave a kinetic solubility of more than 50.8 µg/mL.

In turn, `Oc1c(Cl)cc(Cl)cc1CNc1nccs1` returned a solubility (kinetic) of 2.9 µg/mL (≈ 10.5 µM).

For the compound `C=CCNC(=O)/C(C#N)=C/c1ccc(C(=O)O)cc1`, the solubility (kinetic) is more than 38.4 µg/mL.

`O=C(c1ccco1)N1CCN(S(=O)(=O)c2cccc(Cl)c2)CC1` registered a solubility (kinetic) of more than 53.2 µg/mL.

Turning to `CC(C)CCN1CCN(Cc2cccn2-c2cccnc2)CC1CCO` (configuration not stated), the kinetic solubility was more than 53.5 µg/mL.

As for `COc1ccccc1CN1CCCCC1C(=O)O` (configuration not stated), the kinetic solubility was found to be 35.8 µg/mL (≈ 144 µM).

In the case of `CCCCN=CC1=C(O)CC(c2ccccc2)CC1=O` (configuration not stated), the solubility (kinetic) was 34.9 µg/mL (≈ 129 µM).

As for `CCOCCCNC(=O)c1cc2c(=O)n(CC)c3ccccc3c2s1`, the kinetic solubility was 4.8 µg/mL (≈ 13.4 µM).
